Measurements published in ChEMBL document CHEMBL1649393, “Synthesis and antimicrobial activity of thiosemicarbazides, s-triazoles and their Mannich bases bearing 3-chlorophenyl moiety” (2011).
Converted amounts (≈) assume the structure as drawn.

Legend:
Type in all cases: functional
[1] = test system: Klebsiella pneumoniae; test: Antimicrobial activity against Klebsiella pneumoniae ATCC 13883 assessed as >99.9 % reduction in CFU after 18 hrs by broth microdilution method; details: ATCC 13883, 18 h, read-out: MBC
[2] = test system: Staphylococcus aureus; test: Antimicrobial activity against Staphylococcus aureus ATCC 6538 assessed as >99.9 % reduction in CFU after 18 hrs by broth microdilution method; details: ATCC 6538, 18 h
[3] = test system: Klebsiella pneumoniae; test: Antimicrobial activity against Klebsiella pneumoniae ATCC 13883 after 18 hrs by broth microdilution method; details: ATCC 13883, 18 h
[4] = test system: Micrococcus luteus; test: Antimicrobial activity against Micrococcus luteus ATCC 10240 assessed as >99.9 % reduction in CFU after 18 hrs by broth microdilution method; details: ATCC 10240, 18 h
[5] = test system: Micrococcus luteus; test: Antimicrobial activity against Micrococcus luteus ATCC 10240 after 18 hrs by broth microdilution method; details: ATCC 10240, 18 h
[6] = test system: Bacillus cereus; test: Antimicrobial activity against Bacillus cereus ATCC 10876 after 18 hrs by broth microdilution method; details: ATCC 10876, 18 h
[7] = test system: Staphylococcus epidermidis; test: Antimicrobial activity against Staphylococcus epidermidis ATCC 12228 after 18 hrs by broth microdilution method; details: ATCC 12228, 18 h
[8] = test system: Staphylococcus epidermidis; test: Antimicrobial activity against Staphylococcus epidermidis ATCC 12228 assessed as >99.9 % reduction in CFU after 18 hrs by broth microdilution method; details: ATCC 12228, 18 h
[9] = test system: Bacillus subtilis; test: Antimicrobial activity against Bacillus subtilis ATCC […] assessed as >99.9 % reduction in CFU after 18 hrs by broth microdilution method
[10] = test system: Escherichia coli; test: Antimicrobial activity against Escherichia coli ATCC 25922 assessed as >99.9 % reduction in CFU after 18 hrs by broth microdilution method; details: ATCC 25922, 18 h
[11] = test system: Escherichia coli; test: Antimicrobial activity against Escherichia coli ATCC 25922 after 18 hrs by broth microdilution method; details: ATCC 25922, 18 h
[12] = test system: Staphylococcus aureus; test: Antimicrobial activity against Staphylococcus aureus ATCC 25923 after 18 hrs by broth microdilution method; details: ATCC 25923, 18 h
[13] = test system: Bacillus subtilis; test: Antimicrobial activity against Bacillus subtilis ATCC […] after 18 hrs by broth microdilution method
[14] = test system: Proteus mirabilis; test: Antimicrobial activity against Proteus mirabilis ATCC 12453 assessed as >99.9 % reduction in CFU after 18 hrs by broth microdilution method; details: ATCC 12453, 18 h, read-out: MBC
[15] = test system: Staphylococcus aureus; test: Antimicrobial activity against Staphylococcus aureus ATCC 6538 after 18 hrs by broth microdilution method; details: ATCC 6538, 18 h
[16] = test system: Staphylococcus aureus; test: Antimicrobial activity against Staphylococcus aureus ATCC 25923 assessed as >99.9 % reduction in CFU after 18 hrs by broth microdilution method; details: ATCC 25923, 18 h
[17] = test system: Bacillus cereus; test: Antimicrobial activity against Bacillus cereus ATCC 10876 assessed as >99.9 % reduction in CFU after 18 hrs by broth microdilution method; details: ATCC 10876, 18 h
[18] = test system: Proteus mirabilis; test: Antimicrobial activity against Proteus mirabilis ATCC 12453 after 18 hrs by broth microdilution method; details: ATCC 12453, 18 h, read-out: MIC

SMILES | MBC [1] [µg/mL] | MBC [2] [µg/mL] | MIC [3] [µg/mL] | MBC [4] [µg/mL] | MIC [5] [µg/mL] | MIC [6] [µg/mL] | MIC [7] [µg/mL] | MBC [8] [µg/mL] | MBC [9] [µg/mL] | MBC [10] [µg/mL] | MIC [11] [µg/mL] | MIC [12] [µg/mL] | MIC [13] [µg/mL] | MBC [14] [µg/mL] | MIC [15] [µg/mL] | MBC [16] [µg/mL] | MBC [17] [µg/mL] | MIC [18] [µg/mL]
S=c1n(CN2CCCC2)nc(-c2cccc(Cl)c2)n1-c1ccccc1Br | > 1000 | > 1000 | > 1000 | > 1000 | 500 (≈ 1110 µM) | > 1000 | 500 (≈ 1110 µM) | > 1000 | > 1000 | > 1000 | > 1000 | 250 (≈ 556 µM) | > 1000 | > 1000 | 250 (≈ 556 µM) | > 1000 | > 1000 | > 1000
S=c1[nH]nc(-c2cccc(Cl)c2)n1-c1ccc(I)cc1 |  |  |  |  | > 1000 | 250 (≈ 604 µM) | 250 (≈ 604 µM) |  |  |  |  | 250 (≈ 604 µM) | 31.2 (≈ 75.5 µM) |  | 500 (≈ 1210 µM) |  |  | 
O=C(NNC(=S)Nc1ccccc1I)c1cccc(Cl)c1 |  |  |  |  | 31.2 (≈ 72.4 µM) | 31.2 (≈ 72.4 µM) | 31.2 (≈ 72.4 µM) |  |  |  |  | 31.2 (≈ 72.4 µM) | 15.6 (≈ 36.2 µM) |  | 31.2 (≈ 72.4 µM) |  |  | 
S=c1n(CN2CCCC2)nc(-c2cccc(Cl)c2)n1-c1ccc(Cl)cc1 | 1000 (≈ 2470 µM) | > 1000 | 500 (≈ 1230 µM) | 1000 (≈ 2470 µM) | 1000 (≈ 2470 µM) | 125 (≈ 308 µM) | 1000 (≈ 2470 µM) | 1000 (≈ 2470 µM) | > 1000 | 1000 (≈ 2470 µM) | 1000 (≈ 2470 µM) | 125 (≈ 308 µM) | 125 (≈ 308 µM) | > 1000 | > 1000 | 125 (≈ 308 µM) | > 1000 | > 1000
Cc1ccc(-n2c(-c3cccc(Cl)c3)nn(CN3CCCC3)c2=S)cc1 | > 1000 | > 1000 | > 1000 | > 1000 | 62.5 (≈ 162 µM) | 125 (≈ 325 µM) | 125 (≈ 325 µM) | > 1000 | 1000 (≈ 2600 µM) | > 1000 | > 1000 | 31.2 (≈ 81.2 µM) | 31.2 (≈ 81.2 µM) | > 1000 | 62.5 (≈ 162 µM) | > 1000 | > 1000 | > 1000
O=C(NNC(=S)Nc1c(F)cccc1F)c1cccc(Cl)c1 |  |  |  |  | 250 (≈ 731 µM) | 250 (≈ 731 µM) | 250 (≈ 731 µM) |  |  |  |  | 125 (≈ 366 µM) | 250 (≈ 731 µM) |  | 250 (≈ 731 µM) |  |  | 
S=c1n(CN2CCCC2)nc(-c2cccc(Cl)c2)n1-c1ccccc1I | > 1000 | > 1000 | > 1000 | > 1000 | 500 (≈ 1010 µM) | 500 (≈ 1010 µM) | 500 (≈ 1010 µM) | > 1000 | > 1000 | > 1000 | > 1000 | 500 (≈ 1010 µM) | 250 (≈ 503 µM) | > 1000 | 500 (≈ 1010 µM) | > 1000 | > 1000 | > 1000
Fc1ccc(-n2c(-c3cccc(Cl)c3)n[nH]c2=S)cc1 |  |  |  |  | > 1000 | > 1000 | > 1000 |  |  |  |  | > 1000 | > 1000 |  | > 1000 |  |  | 
COc1ccc(-n2c(-c3cccc(Cl)c3)nn(CN3CCCC3)c2=S)cc1 | 500 (≈ 1250 µM) | 500 (≈ 1250 µM) | 250 (≈ 624 µM) | 1000 (≈ 2490 µM) | 125 (≈ 312 µM) | 125 (≈ 312 µM) | 250 (≈ 624 µM) | 1000 (≈ 2490 µM) | 500 (≈ 1250 µM) | 500 (≈ 1250 µM) | 250 (≈ 624 µM) | 125 (≈ 312 µM) | 250 (≈ 624 µM) | > 1000 | 250 (≈ 624 µM) | 500 (≈ 1250 µM) | > 1000 | 500 (≈ 1250 µM)
S=c1[nH]nc(-c2cccc(Cl)c2)n1-c1ccc(Cl)cc1 |  |  |  |  | 125 (≈ 388 µM) | 125 (≈ 388 µM) | 125 (≈ 388 µM) |  |  |  |  | 125 (≈ 388 µM) | 125 (≈ 388 µM) |  | 125 (≈ 388 µM) |  |  | 
S=c1[nH]nc(-c2cccc(Cl)c2)n1-c1ccccc1Br |  |  |  |  | > 1000 | 1000 (≈ 2730 µM) | 125 (≈ 341 µM) |  |  |  |  | > 1000 | 1000 (≈ 2730 µM) |  | > 1000 |  |  | 
O=C(NNC(=S)Nc1ccc(Cl)cc1)c1cccc(Cl)c1 |  |  |  |  | 31.2 (≈ 91.8 µM) | 62.5 (≈ 184 µM) | 31.2 (≈ 91.8 µM) |  |  |  |  | 31.2 (≈ 91.8 µM) | 31.2 (≈ 91.8 µM) |  | 31.2 (≈ 91.8 µM) |  |  | 
Cc1ccc(NC(=S)NNC(=O)c2cccc(Cl)c2)cc1 |  |  |  |  | > 1000 | > 1000 | > 1000 |  |  |  |  | 62.5 (≈ 195 µM) | > 1000 |  | 62.5 (≈ 195 µM) |  |  | 
S=c1n(CN2CCCC2)nc(-c2cccc(Cl)c2)n1-c1ccccc1 | 500 (≈ 1350 µM) | 500 (≈ 1350 µM) | 250 (≈ 674 µM) | 1000 (≈ 2700 µM) | 125 (≈ 337 µM) | 125 (≈ 337 µM) | 125 (≈ 337 µM) | 1000 (≈ 2700 µM) | 500 (≈ 1350 µM) | 500 (≈ 1350 µM) | 500 (≈ 1350 µM) | 125 (≈ 337 µM) | 125 (≈ 337 µM) | > 1000 | 125 (≈ 337 µM) | 500 (≈ 1350 µM) | > 1000 | 500 (≈ 1350 µM)
Fc1cccc(F)c1-n1c(-c2cccc(Cl)c2)n[nH]c1=S |  |  |  |  | 125 (≈ 386 µM) | 250 (≈ 772 µM) | 250 (≈ 772 µM) |  |  |  |  | 250 (≈ 772 µM) | 500 (≈ 1540 µM) |  | 250 (≈ 772 µM) |  |  | 
